Data from patent US11612583B2, “Disease modifying methods for treating neurodegenerative diseases using nootropic agents” (priority 2018, dated 2023).
“Also recorded” adds a separate entry of the source.

Experiments:
PINK1 knockout mice = assay: Dendrite length and mitochondrial content of substantia nigra dopamine neurons in PINK1 knockout mice; assay type: in vivo, mouse; details: intraperitoneal 1 mg/kg once every 2 days up to one week, vs untreated PINK1 knockout mice
Experimental: (§1) All experiments involving mice and rats were performed in accord with ARRIVE (Animal Research: Reporting of In Vivo Experiments) guidelines. Wild-type C57BL/6 and PINK1 knockout mice (B6.129S4-Pink1^tm1Slm/J), wild-type (Long Evans rats) and PINK1 knockout (LEH-PINK1^tm1sage.Park6) rats (SAGE labs through Horizon Discovery) were handled humanely and appropriately per the ARRIVE guidelines. All mice were housed at the Laboratory of Animal Resources (University of Nevada, Reno) in cages containing sufficient bedding, food (pellets), water, with sufficient social, nutritional and “enriched” environments, and maintained in HVAC-pressurized/sterile environment and in 12:12 hr light/dark cycles.
Wild-type (PINK1+/+) or PINK1 knockout (PINK1−/−) mice were treated with intraperitoneal injections of DMSO control or Forskolin (1 mg/kg body weight) once every 2 days for up to one week. At the end of each treatment, mice were sacrificed, and intracardially perfused with saline followed by 4% formaldehyde. Midbrain slices from wild-type and PINK1 KO mice were immunostained for mitochondria (TOM20) and tyrosine hydroxylase (TH, purple) to identify midbrain dopamine neurons and dendrite length.

PINK1-KO rats [1] = assay: Tapered beam balance test (coordination and balance) in PINK1-KO rats; assay type: in vivo, rat; details: intraperitoneal Forskolin 1.6 mg/kg with or without Noopept 0.05 μg/kg; 10 days; post vs pre-treatment; FIG. 10
Experimental: as §1
(§2) Wild-type (PINK1+/+) or PINK1 knockout (PINK1−/−) rats were treated with intraperitoneal injections of DMSO control or of Forskolin (1.6 mg/kg body weight) once every 2 days for two doses followed by co-administration with Noopept (0.05 μg/kg) for three more doses (once every two days) for up to a total treatment time of 10 days. […] In addition, muscle coordination and balance were assessed by subjecting the rats to cross a 1-meter, tapered beam balance (2 cm width) for up to three trials per animal. […]

[2] = tested on: primary cortical neurons treated with rotenone; assay: Dendrite length analysis (MAP2B immunostaining); assay type: cell-based, mouse; details: after rotenone 65 nM; Forskolin/NKH477 6.5 μM-8.5 μM or 250 μM dbt-cAMP; FIG. 5
PINK1-KO rats [3] = assay: Hind limb grip strength in PINK1-KO rats; assay type: in vivo, rat; details: intraperitoneal Forskolin 1.6 mg/kg with or without Noopept 0.05 μg/kg; 10 days; post vs pre-treatment; FIG. 11
Experimental: as §1, §2

Protein Kinase A (PKA) = assay: PKA activity in cortex lysates after intranasal administration (ELISA-based colorimetric kit); assay type: in vivo, wild-type Long Evans Hooded rats; details: for blood brain barrier crossing: intranasal formulation, inferred from increased cortical PKA activity within 24 hrs; for PKA activity in the cortex: intranasal, 6 μl per nostril, 24 hr, 2.5 and 10 μM in cerebrospinal fluid, vs 0 μM, FIG. 14
Experimental: PKA activity was measured in cortex of wild-type Long Evans Hooded rats by determining the level of PKA-mediated substrate phosphorylation by using an ELISA-based colorimetric PKA activity kit per manufacturer's recommendations (Enzo Life Sciences; ADI-EKS-390A) with the following minor modifications. To determine PKA-specific activity, lysates form the cortex were treated with H89, a pharmacological inhibitor of PKA at 10 μM for 5 min, and the H89-resistant kinase activity was subtracted from total kinase activity of untreated tissue lysates.
Combine 1.68 grams K2HPO4 ([…]), 5.28 grams KH2PO4 ([…]), and 81.8 grams NaCl ([…]). Add distilled H2O up to 1 L total volume. Autoclave and sterilize solution. Adjust the pH of the solution to 7.4 using a pH meter. Add 1 gram sodium benzoate (0.1%) or propyl benzoic acid. Reconstitute up to 2 mg of lyophilized, sterile, pharmaceutical grade water-soluble Forskolin analogue, for example water soluble analogue NKH477, in 1 mL of PBS by using a 1 mL syringe. Transfer the reconstituted Forskolin onto the receiving chamber of an intranasal atomizer (NAD nasal) prior to intranasal delivery.
(*:p<0.05 vs. 0 μM, One-Way ANOVA, Tukey's test, N=3 rats per group).

PINK1-KO rats [4] = assay: Baseline oxygen consumption rates in midbrain slices of PINK1-KO rats; assay type: in vivo, rat; details: intraperitoneal Forskolin 1.6 mg/kg with or without Noopept 0.05 μg/kg; FIG. 12
Experimental: Wild-type (PINK1+/+) or PINK1 knockout (PINK1−/−) rats were treated with intraperitoneal injections of DMSO control or of Forskolin (1.6 mg/kg body weight) once every 2 days for two doses followed by co-administration with Noopept (0.05 μg/kg) for three more doses (once every two days) for up to a total treatment time of 10 days. At the end of each treatment, a battery of motor tests were performed in vehicle-treated or WT and PINK1-KO rats treated with compounds to analyze for muscle strength in hind legs by using a grip strength analyzer. In addition, muscle coordination and balance were assessed by subjecting the rats to cross a 1-meter, tapered beam balance (2 cm width) for up to three trials per animal. Upon completing the behavioral tests, the rats were then transcardially perfused with phosphate buffered saline, and the brains were extracted, midbrain slices were generated by using a vibratome (brain slicer) at room temperature and maintained in artificial cerebral spinal fluid. The oxygen consumption rates were then measured by using an XF24^e Metabolic Analyzer to measure energy production in the brain (oxidative phosphorylation) as described in Example 1 but with the following modifications. […] The brain slices were analyzed for baseline respiration for five cycles with each cycle consisting of 3 min. of mixing, 3 min. of waiting and 2 min. of measuring OCRs.

## C=C[C@@]1(C)CC(=O)[C@]2(O)[C@@]3(C)[C@@H](O)CCC(C)(C)[C@@H]3[C@H](O)[C@H](OC(C)=O)[C@@]2(C)O1 [Forskolin]
PINK1 knockout mice; FIG. 6A
  dendrite length of substantia nigra dopamine neurons: significantly increased; also recorded: reverses the loss of dendrites
PINK1 knockout mice; FIG. 6B
  mitochondrial content in dendrites of substantia nigra dopamine neurons: significantly increased; also recorded: reverses the loss of dendrites and mitochondria in dendrites
PINK1-KO rats [1]
  coordination and balance (motor score, falls and slips per crossing): can reverse the loss of coordination and balance; also recorded: can reverse the loss of balance and coordination
[2]
  dendrite arbors (total dendrite length per neuron): reversed the loss of dendrites; also recorded: completely blocked; also recorded: significantly restored
PINK1-KO rats [3]
  hind limb muscle strength: can reverse the loss of hind limb strength; also recorded: can reverse the loss of muscle strength
Protein Kinase A (PKA)
  blood brain barrier crossing: can efficiently cross the blood brain barrier; also recorded: efficiently crosses the blood brain barrier
  PKA activity in the cortex: significantly increases PKA activity
Protein Kinase A (PKA); listed as forskolin
  blood brain barrier crossing: crosses the blood brain barrier efficiently
  PKA activity in the cortex: enhances neuroprotective PKA activity
PINK1-KO rats [4]
  basal respiration / oxidative phosphorylation in the midbrain (baseline OCRs): sufficient to reverse the loss in oxidative phosphorylation; also recorded: significantly restored basal respiration
